Measured values from US12016682B2, “In-vivo monitoring of molecular targets” (The Regents of the University Of California, priority 2013, dated 2024).
{C7MB} = methylene blue on (CH2)7 linker; {C11SH} = thiol on (CH2)11 linker; {MB} = methylene blue redox label; {C6SH} = thiol on (CH2)6 linker

Key:
[1] = DOX probe characterization: dose-response (affinity) and kinetic response by square-wave voltammetry; format: binding
Source text: Aptamer probes were synthesized with the following sequences: DOX-probe: 5′-HS—(CH2)6-ACCATCTGTGTAAGGGGTAAGGGGTGGT-MB-3′ (SEQ ID NO: 1), Kanamycin-probe: 5′-HS—(CH2)6-GGGACTTGGTTTAGGTAATGAGTCCC-MB-3′ (SEQ ID NO: 2). DOX-probe is a truncated form of an anthracycline aptamer. A region of the aptamer suspected of supporting a hairpin structure was selected, with an apparent active binding site in the base. The stem was engineered to enable effective signal transduction through stabilization of the folded state. The kanamycin probe was adapted from that described in Rowe et al. Analytical chemistry 82, 7090-5 (2010). Each probe was thiolated at the 5′-end to facilitate self-assembly on the gold working electrodes, and conjugated with an MB redox label at the 3′-end to enable target binding-induced charge transfer modulation. Prior to probe immobilization, the gold electrodes were first cleaned via cyclic voltammetry, with twelve potential sweeps ranging from −0.8 to 0.9 V (with respect to the platinum reference electrode) applied at 0.1 V·s^−1 with a sample interval of 0.001 V and 10 μA sensitivity in 50 mM H2SO4. Subsequently, the chamber was flushed with DI water, followed by the addition of probe solution. The probe solution was prepared by adding 2 μL of 10 mM tris(2-carboxyethyl)phosphine (TCEP) to 1 μL of 200 μM probe stock and incubating at room temperature for 60 minutes to enable cleavage of disulphide bonds. The solution was then diluted to 2 μM in 1× saline-sodium citrate (SSC) buffer for effective self-assembly. The chip was incubated with probe solution for 1 hour at room temperature, permitting the thiolated aptamer to form a monolayer on the gold electrode surface. The chamber was then flushed with 5 mL DI water for 5 minutes, and the remaining electrode area was incubated for two hours in passivation solution, consisting of 1 μL of stock 6-mercaptohexanol diluted to 3 mM in DI water. The chamber was flushed again with DI water and filled with 1×SSC, after which the device was stored at 4° C. until use.
Electrochemical measurements were conducted with an electrochemical analyzer (730B, CH Instruments, Austin, TX). The chip was connected via 8-pin card-edge connector and subjected to SWV scans. Working electrodes were scanned in continuous succession with an average scan period of 8 seconds. To accommodate potential shifts due to the non-ideal on-chip pseudo-reference electrodes, a 400 mV potential range was scanned to reliably capture the MB redox peak. For optimal frequency determination for the KDM, frequency-sweep scans were performed from 5 Hz to 800 Hz, with amplitude of 25 mV. A custom peak-fitting script was created to fit the SWV measurements with a Gaussian curve on a hyperbolic baseline. Peak currents were then normalized to a baseline peak current to generate signal gain. Unless otherwise noted, all reported gains were obtained via KDM with the difference divided average of gains from 7.5 Hz and 75 Hz signals.
Probes were characterized in terms of affinity, specificity and kinetic response. For affinity measurements, a dose-response curve was obtained by subjecting the probe to DOX concentrations (for the DOX-probe) ranging from 50 nM to 10 μM in 1×SSC at a flow-rate of 1 mL·h^−1. At each concentration, the signal was permitted to equilibrate and then ten subsequent readings were obtained from two separate electrodes and averaged as the reported values. The same procedure was applied for specificity characterization, where DOX was injected at 1 μM while off-target reagents mitomycin-C (MTC), ifosfamide (Ifex), Mesna, dacarbazine (DTIC) or cisplatin (CDDP) were injected at 1 mM. […] Voltammograms were taken in immediate succession to provide maximal temporal resolution. Dose-response curves were obtained by fitting data to a one-site binding model, and kinetic-response curves were obtained by fitting data to a one-phase association and dissociation model. […]

[2] = Cocaine/procaine binding aptamer sensor step response to target in buffer and whole blood (SWV)
[3] = biphasic, cited from earlier work
[4] = male, Sprague-Dawley, rat, in vivo
Experimental: (§1) All rats used in this work were Sprague-Dawley males from Charles River Laboratories (Hollister, CA, USA). To safely mount the device and catheters, rats were sedated throughout the duration of the experiment via isoflurane gas (1-4%) and ketamine/xylazine (56.25 mg·kg^−1 and 7.5 mg·kg^−1 respectively). Animals were placed dorsal side down on a heating pad. The right jugular vein was isolated and catheterized to provide an intravenous injection port. An initial injection of 0.41 mL heparin solution (1000 U·mL^−1 USP) was performed, followed by periodic injections of 0.1 mL every 40 minutes to prevent clot formation in the catheters. The left jugular vein was isolated and cannulated. A 0.3 mL pre-drug injection control blood sample was taken and set aside for the duration of the experiment. The end of a 10-cm length of Tygon® tubing (2.29-mm OD and 0.76-mm ID) was inserted into the cannula to connect the intravenous blood source to the blood port of the MEDIC device. […] Target concentrations were adjusted for a constant 0.3 mL injection volume, and injected via the input catheter in a 30-second bolus at >30 min intervals. Upon completion of each experiment, subjects were euthanized via intravenous Euthasol® injection. The MEDIC input tube was then redirected to the control blood to obtain post-experiment readings of zero-target blood samples.
(§2) A rat with a body surface area of 620 cm^2 was dosed with increasing DOX concentrations (0-2 mg·m^−2) over 4.5 hours (FIG. 12, Panel A).

[5] = Continuous real-time MEDIC measurement of in vivo DOX concentration in live rats; conditions: male, Sprague-Dawley, rat, 1 mg·m^−2, alpha-phase half-life t1/2^α
Experimental: as §1, §2

[6] = humans; cited from earlier work
DOX probe = DOX probe specificity characterization against off-target chemotherapy agents; format: binding; conditions: 1,000× greater concentrations (1 mM vs DOX 1 μM), 1×SSC
Source text: Probes were characterized in terms of affinity, specificity and kinetic response. […] At each concentration, the signal was permitted to equilibrate and then ten subsequent readings were obtained from two separate electrodes and averaged as the reported values. […] Voltammograms were taken in immediate succession to provide maximal temporal resolution. Dose-response curves were obtained by fitting data to a one-site binding model, and kinetic-response curves were obtained by fitting data to a one-phase association and dissociation model.

[7] = stated, not measured here; cited from earlier work
in vivo = conditions: male, Sprague-Dawley, rat, iv
Experimental: A calibration curve was obtained (FIG. 5), then doses of 32, 64 and 96 mg·kg^−1 were serially injected, followed by a baseline control.

[8] = after a 5 minute pulse of 600 nM DOX

## 5′-HS—(CH2)6-ACCATCTGTGTAAGGGGTAAGGGGTGGT-MB-3′ (ACCATCTGTGTAAGGGGTAAGGGGTGGT; DNA, 5' {C6SH}, 3' {MB}, backbone and methylation of C not given here) [DOX probe, truncated form of an anthracycline DNA aptamer, thiolated at the 5′-end, MB redox label at the 3′-end]
[1]; DOX pulse
  time to reach 90% saturation: ≤ 45 s
[1]; after DOX pulse
  time to return to 10% of baseline: ≤ 100 s
[1]; [8]
  koff: 0.0225 ± 0.00083 s⁻¹
  kon: 50000 ± 5830 M⁻¹ s⁻¹
[1]; in buffer
  dynamic range: 0.1 to 10 µM
  limit of detection (LOD): 10 nM
[1]; signal gain fitted to a Langmuir isotherm, DOX 50 nM to 10 μM in 1×SSC, read-out: apparent Kd
  Kd: 0.824 µM

## 5′-HS—(CH2)11-AGACAAGGAAAATCCTTCAATGAAGTGGGTCG-(CH2)7-MB-3′ (AGACAAGGAAAATCCTTCAATGAAGTGGGTCG; DNA, 5' {C11SH}, 3' {C7MB}, backbone and methylation of C not given here) [cocaine/procaine binding aptamer, DNA aptamer thiolated on the 5′-end, methylene blue redox label at the 3′-end]
[2]
  Kd: ~190 µM
[2]; 128 μM target in 1×SSC buffer
  koff: ~0.031 s⁻¹
  kon: ~160 M⁻¹ s⁻¹
[2]; 128 μM target in 1×SSC buffer, before blood exposure
  signal gain: 60%
[2]; 128 μM target in buffer after whole blood exposure
  signal gain: ~20%
[2]; 128 μM target in whole blood, after ~1 h whole blood exposure at room temperature
  signal gain: ~10%
[2]; 37° C.
  affinity for its target at 37° C.: loses affinity for its target
[2]; room temperature
  performance at room temperature: performs well

## C[C@@H]1[C@H](O)[C@@H](C)/C=C/C=C/C=C/C=C/C=C/C=C/C=C/[C@H](O[C@@H]2O[C@H](C)[C@@H](O)[C@H](N)[C@@H]2O)C[C@@H]2O[C@](O)(C[C@@H](O)C[C@@H](O)[C@H](O)CC[C@@H](O)C[C@@H](O)CC(=O)O[C@H]1C)C[C@H](O)[C@H]2C(=O)O [Amphotericin B]
[3]; initial phase
  half-life, initial phase: 1440 min
[3]; second phase
  half-life, second phase: 15 days

## COc1cccc2c1C(=O)c1c(O)c3c(c(O)c1C2=O)C[C@@](O)(C(=O)CO)C[C@@H]3O[C@H]1C[C@H](N)[C@H](O)[C@H](C)O1 [DOX, doxorubicin]
[4]
  Pearson correlation coefficient of t1/2^α as a function of body surface area: −0.73
[5]; first of two injections of 1 mg·m^−2
  half-life: 10.7 ± 0.5 min
[5]; second of two injections of 1 mg·m^−2
  half-life: 10.8 ± 1 min
[6]
  alpha-phase plasma clearance time: 6 to 26 min

## N.N.[Cl][Pt][Cl] [cisplatin]
DOX probe
  sensor response to off-target drug: did not respond

## O=P1(NCCCl)OCCCN1CCCl (centres unmarked) [ifosfamide]
DOX probe
  sensor response to off-target drug: did not respond

## NC[C@H]1O[C@H](O[C@H]2[C@H](O)[C@@H](O[C@H]3O[C@H](CO)[C@@H](O)[C@H](N)[C@H]3O)[C@H](N)C[C@@H]2N)[C@H](O)[C@@H](O)[C@@H]1O [kanamycin]
[7]
  beta phase t1/2^β: 120 to 180 min
In vivo; 32 mg/kg
  half-life: 7.2 min
In vivo; 64 mg/kg
  half-life: 10 min
In vivo; 96 mg/kg
  half-life: 9 min

## O=S(=O)(O)CCS [mesna]
DOX probe
  sensor response to off-target drug: did not respond

## CO[C@@]12[C@H](COC(N)=O)C3=C(C(=O)C(C)=C(N)C3=O)N1C[C@@H]1N[C@@H]12 [mitomycin-C]
DOX probe
  sensor response to off-target drug: did not respond
